Results from ChEMBL document CHEMBL5338804 (J Med Chem, 2023).

System: not listed separately
Assay: Metabolic stability in rat liver microsomes assessed as parent compound remaining at 0.5 uM measured after 10 mins in presence of NADPH by LC-MS/MS analysis
Format: ADME, Microsome
Conditions: read-out: Stability

Compared with `O=C(Nc1cnccc1-c1ccc(F)cc1)c1ccnc(Nc2ccc(C(F)(F)F)cc2)n1`, `O=C(Nc1cnccc1-c1ccccc1)c1ccnc(Nc2ccc(C(F)(F)F)cc2)n1` is lower in remaining at 10 min, 0.5 µM: 100% for the first, 76% for the second.

Going from `O=C(Nc1cnccc1-c1ccccc1)c1ccnc(Nc2ccccc2)n1` to `O=C(Nc1cnccc1-c1ccccc1)c1ccnc(Nc2ccncc2)n1`, the remaining at 10 min, 0.5 µM rises from 3% to 60%.

Going from `O=C(Nc1cnccc1N1CCC(F)(F)CC1)c1ccnc(Nc2ccccc2)n1` to `O=C(Nc1cnccc1-c1ccccc1)c1ccnc(Nc2ccc(OC(F)F)cc2)n1`, the remaining at 10 min, 0.5 µM rises from 0% to 52%.

Going from `CS(=O)(=O)c1ccc(Nc2nccc(C(=O)Nc3cnccc3-c3ccccc3)n2)cc1` to `COc1ccc(Nc2nccc(C(=O)Nc3cnccc3-c3ccccc3)n2)cc1F`, the remaining at 10 min, 0.5 µM falls from 85% to 0.8%.

Work on `O=C(Nc1cnccc1-c1ccccc1)c1ccnc(Nc2c(F)cc(Cl)cc2F)n1` yielded a remaining at 10 min, 0.5 µM of 13%.

System: not listed separately
Assay: Selectivity ratio of IC50 for human recombinant full length GST-tagged GSK-3-alpha expressed in insect cells to IC50 for human recombinant N-terminal His6-tagged GSK-3-beta (14 to 306 residues) H355L mutant expressed in baculovirus-infected Sf21 cells
Conditions: not given

`O=C(Nc1cccnc1)c1ccncn1` and `Nc1nccc(C(=O)Nc2cccnc2)n1` cannot be ordered by Ratio IC50: under 2 for the first, under 2 for the second.

`Nc1nccc(C(=O)Nc2cnccc2N2CCC(F)(F)CC2)n1` and `O=C(Nc1cnccc1N1CCC(F)(F)CC1)c1ccncn1` cannot be ordered by Ratio IC50: under 2 for the first, under 2 for the second.

Biological target: Glycogen synthase kinase-3 alpha (Homo sapiens, UniProt P49840)
Assay: Displacement of FL-KRREILSRRP[ps]ERYR-NH2 from human recombinant full length GST-tagged GSK-3-alpha expressed in insect cells incubated for 20 hrs by fluorescence based analysis
Design: species or system Insect cell
Conditions: not given

Sequence of Glycogen synthase kinase-3 alpha (P49840 whole entry): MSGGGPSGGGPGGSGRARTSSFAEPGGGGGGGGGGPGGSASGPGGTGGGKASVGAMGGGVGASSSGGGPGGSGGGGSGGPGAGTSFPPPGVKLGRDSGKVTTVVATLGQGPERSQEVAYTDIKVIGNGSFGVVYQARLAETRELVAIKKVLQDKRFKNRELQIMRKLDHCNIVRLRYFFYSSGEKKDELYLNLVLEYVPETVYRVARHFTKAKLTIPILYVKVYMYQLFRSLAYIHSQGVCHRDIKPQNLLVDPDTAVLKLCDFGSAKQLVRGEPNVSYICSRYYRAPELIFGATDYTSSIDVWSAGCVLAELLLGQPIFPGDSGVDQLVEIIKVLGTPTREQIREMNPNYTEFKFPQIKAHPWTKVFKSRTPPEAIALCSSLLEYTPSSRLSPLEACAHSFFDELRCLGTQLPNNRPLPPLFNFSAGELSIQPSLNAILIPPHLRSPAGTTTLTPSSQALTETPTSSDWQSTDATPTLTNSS

`O=C(Nc1cccnc1)c1ccncn1` and `Nc1nccc(C(=O)Nc2cccnc2)n1` cannot be ordered by IC50: over 2000 nM for the first, over 2000 nM for the second.

`O=C(Nc1cnccc1OCC(F)(F)F)c1ccnc(Nc2ccc(C(F)(F)F)cc2)c1` and `O=C(Nc1cnccc1-c1ccccc1)c1ccnc(Nc2ccc(Cl)cc2)c1` are within 1.5-fold of each other in IC50: 10 nM for the first, 8.6 nM for the second.

Work on `O=C(Nc1cnccc1N1CCC(F)(F)CC1)c1ccncn1` yielded an IC50 of 470 nM.

System: not listed separately
Assay: Metabolic stability in mouse liver microsomes assessed as parent compound remaining at 0.5 uM measured after 10 mins in presence of NADPH by LC-MS/MS analysis
Format: ADME, Microsome
Conditions: read-out: Stability

Going from `O=C(Nc1cnccc1-c1ccc(F)cc1)c1ccnc(Nc2ccc(C(F)(F)F)cc2)n1` to `O=C(Nc1cnccc1-c1ccccc1)c1ccnc(Nc2ccc(C(F)(F)F)cc2)n1`, the remaining at 10 min, 0.5 µM falls from 100% to 77%.

Going from `O=C(Nc1cnccc1-c1ccccc1)c1ccnc(Nc2ccccc2)n1` to `O=C(Nc1cnccc1-c1ccccc1)c1ccnc(Nc2ccncc2)n1`, the remaining at 10 min, 0.5 µM rises from 26% to 34%.

First: O=C(Nc1cnccc1N1CCC(F)(F)CC1)c1ccnc(Nc2ccccc2)n1
Second: O=C(Nc1cnccc1-c1ccccc1)c1ccnc(Nc2ccc(OC(F)F)cc2)n1
The remaining at 10 min, 0.5 µM of the first is lower: 3% for the first, 65% for the second.

Going from `CS(=O)(=O)c1ccc(Nc2nccc(C(=O)Nc3cnccc3-c3ccccc3)n2)cc1` to `COc1ccc(Nc2nccc(C(=O)Nc3cnccc3-c3ccccc3)n2)cc1F`, the remaining at 10 min, 0.5 µM falls from 33% to 32%.

Molecule `O=C(Nc1cnccc1-c1ccccc1)c1ccnc(Nc2c(F)cc(Cl)cc2F)n1` has a remaining at 10 min, 0.5 µM of 14%.

Biological target: Glycogen synthase kinase-3 (Homo sapiens, UniProt P49840+P49841)
Assay: Inhibition of GSK-3 in human U2OS cells transfected with beta-catenin GFP and 4R1N tau plasmid assessed as inhibition of Tau phosphorylation at Ser396 residues by high-content imaging assay
Format: cell-based
Conditions: not given

First: O=C(Nc1cnccc1OCC(F)(F)F)c1ccnc(Nc2ccc(C(F)(F)F)cc2)c1
Second: O=C(Nc1cnccc1-c1ccccc1)c1ccnc(Nc2ccc(C(F)(F)F)cn2)c1
The IC50 of the first is 17-fold higher: 820 nM for the first, 49 nM for the second.

Compared with `O=C(Nc1cnccc1-c1ccc(F)cc1)c1ccnc(Nc2ccc(C(F)(F)F)cc2)n1`, `O=C(Nc1cnccc1-c1ccccc1)c1ccnc(Nc2ccc(C(F)(F)F)cc2)n1` is 2.4-fold higher in IC50: 100 nM for the first, 240 nM for the second.

Compared with `O=C(Nc1cnccc1-c1ccccc1)c1ccnc(Nc2ccccc2)n1`, `O=C(Nc1cnccc1-c1ccccc1)c1ccnc(Nc2ccncc2)n1` is 3.3-fold lower in IC50: 100 nM for the first, 30 nM for the second.

Going from `O=C(Nc1cnccc1N1CCC(F)(F)CC1)c1ccnc(Nc2ccccc2)n1` to `O=C(Nc1cnccc1-c1ccccc1)c1ccnc(Nc2ccc(OC(F)F)cc2)n1`, the IC50 rises from 8.5 nM to 60 nM (7.1-fold).

First: CS(=O)(=O)c1ccc(Nc2nccc(C(=O)Nc3cnccc3-c3ccccc3)n2)cc1
Second: COc1ccc(Nc2nccc(C(=O)Nc3cnccc3-c3ccccc3)n2)cc1F
The IC50 of the first is 1.7-fold lower: 10 nM for the first, 17 nM for the second.

First: O=C(Nc1cnccc1-c1ccccc1)c1ccnc(Nc2c(F)cc(Cl)cc2F)n1
Second: O=C(Nc1cnccc1-c1ccccc1)c1ccnc(Nc2ccc(Cl)cc2)c1
The IC50 of the first is 4.7-fold lower: 350 nM for the first, 1650 nM for the second.

Biological target: Glycogen synthase kinase-3 beta (Homo sapiens, UniProt P49841, H355L)
Assay: Displacement of FL-KRREILSRRP[ps]ERYR-NH2 from human recombinant N-terminal His6-tagged GSK-3-beta (14 to 306 residues) H355L mutant expressed in baculovirus-infected Sf21 cells incubated for 20 hrs by fluorescence based analysis
Conditions: not given

Sequence of Glycogen synthase kinase-3 beta (P49841 whole entry, looked up, stated change not applied, the tested form may be a part): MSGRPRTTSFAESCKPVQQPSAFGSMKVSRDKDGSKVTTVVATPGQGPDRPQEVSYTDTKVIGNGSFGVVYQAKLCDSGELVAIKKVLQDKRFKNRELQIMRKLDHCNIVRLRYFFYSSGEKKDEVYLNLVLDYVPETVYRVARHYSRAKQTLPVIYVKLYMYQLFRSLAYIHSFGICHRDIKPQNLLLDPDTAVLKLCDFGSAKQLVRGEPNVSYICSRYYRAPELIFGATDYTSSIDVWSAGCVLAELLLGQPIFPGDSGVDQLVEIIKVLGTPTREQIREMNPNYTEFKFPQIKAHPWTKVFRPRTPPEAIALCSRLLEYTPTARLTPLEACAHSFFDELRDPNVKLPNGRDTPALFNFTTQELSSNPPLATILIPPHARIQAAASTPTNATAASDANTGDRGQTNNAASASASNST

`O=C(Nc1cccnc1)c1ccncn1` and `Nc1nccc(C(=O)Nc2cccnc2)n1` cannot be ordered by IC50: over 2000 nM for the first, over 2000 nM for the second.

First: O=C(Nc1cnccc1OCC(F)(F)F)c1ccnc(Nc2ccc(C(F)(F)F)cc2)c1
Second: O=C(Nc1cnccc1-c1ccccc1)c1ccnc(Nc2ccc(C(F)(F)F)cn2)c1
The IC50 of the first is 22-fold higher: 20 nM for the first, 0.89 nM for the second.

Compared with `Cc1ccc(C(=O)Nc2c[nH]nc2C(=O)CCCOC(C)C)cn1`, `Nc1nccc(C(=O)Nc2cnccc2N2CCC(F)(F)CC2)n1` is 15-fold higher in IC50: 2 nM for the first, 30 nM for the second.

`O=C(Nc1cnccc1-c1ccc(F)cc1)c1ccnc(Nc2ccc(C(F)(F)F)cc2)n1` and `O=C(Nc1cnccc1-c1ccccc1)c1ccnc(Nc2ccc(C(F)(F)F)cc2)n1` are within 1.5-fold of each other in IC50: 2.1 nM for the first, 2 nM for the second.

Compared with `O=C(Nc1cnccc1-c1ccccc1)c1ccnc(Nc2ccccc2)n1`, `O=C(Nc1cnccc1-c1ccccc1)c1ccnc(Nc2ccncc2)n1` is 2.6-fold higher in IC50: 0.43 nM for the first, 1.1 nM for the second.

First: O=C(Nc1cnccc1N1CCC(F)(F)CC1)c1ccnc(Nc2ccccc2)n1
Second: O=C(Nc1cnccc1N1CCC(F)(F)CC1)c1ccncn1
The IC50 of the first is 1300-fold lower: 0.2 nM for the first, 260 nM for the second.

First: CS(=O)(=O)c1ccc(Nc2nccc(C(=O)Nc3cnccc3-c3ccccc3)n2)cc1
Second: O=C(Nc1cnccc1-c1ccccc1)c1ccnc(Nc2ccc(OC(F)F)cc2)n1
The IC50 of the first is 1.8-fold lower: 0.25 nM for the first, 0.45 nM for the second.

Going from `O=C(Nc1cnccc1-c1ccccc1)c1ccnc(Nc2ccc(Cl)cn2)c1` to `O=C(Nc1cnccc1-c1ccccc1)c1ccnc(Nc2ccc(Cl)cc2)c1`, the IC50 rises from 0.9 nM to 13 nM (14-fold).

First: COc1ccc(Nc2nccc(C(=O)Nc3cnccc3-c3ccccc3)n2)cc1F
Second: O=C(Nc1cnccc1-c1ccccc1)c1ccnc(Nc2c(F)cc(Cl)cc2F)n1
The IC50 of the first is 22-fold lower: 0.18 nM for the first, 3.9 nM for the second.

System: not listed separately
Assay: Metabolic stability in human liver microsomes assessed as parent compound remaining at 0.5 uM measured after 10 mins in presence of NADPH by LC-MS/MS analysis
Format: ADME, Microsome
Conditions: read-out: Stability

Compared with `O=C(Nc1cnccc1-c1ccc(F)cc1)c1ccnc(Nc2ccc(C(F)(F)F)cc2)n1`, `O=C(Nc1cnccc1-c1ccccc1)c1ccnc(Nc2ccc(C(F)(F)F)cc2)n1` is lower in remaining at 10 min, 0.5 µM: 100% for the first, 83% for the second.

Compared with `O=C(Nc1cnccc1-c1ccccc1)c1ccnc(Nc2ccccc2)n1`, `O=C(Nc1cnccc1-c1ccccc1)c1ccnc(Nc2ccncc2)n1` is higher in remaining at 10 min, 0.5 µM: 52% for the first, 57% for the second.

Compared with `O=C(Nc1cnccc1N1CCC(F)(F)CC1)c1ccnc(Nc2ccccc2)n1`, `O=C(Nc1cnccc1-c1ccccc1)c1ccnc(Nc2ccc(OC(F)F)cc2)n1` is higher in remaining at 10 min, 0.5 µM: 21% for the first, 72% for the second.

Going from `CS(=O)(=O)c1ccc(Nc2nccc(C(=O)Nc3cnccc3-c3ccccc3)n2)cc1` to `COc1ccc(Nc2nccc(C(=O)Nc3cnccc3-c3ccccc3)n2)cc1F`, the remaining at 10 min, 0.5 µM falls from 84% to 31%.

Molecule `O=C(Nc1cnccc1-c1ccccc1)c1ccnc(Nc2c(F)cc(Cl)cc2F)n1` has a remaining at 10 min, 0.5 µM of 41%.
